The first assay concerns P. putida KT2440. In words: microbe, parasite or virus in culture. It is filed as cell-based. As to conditions: Pseudomonas putida, KT2440. Here is the method:
Toxicity of the TC wastewater streams and toxic compounds present in FPS were evaluated in microplate growth assays performed in a Bioscreen C MBR analyzer (Growth Curves US, Piscataway, N.J.). Pre-cultures of the strains were prepared by inoculating 25 mL M9 medium supplemented with 20 mM glucose in a 125 mL baffled flask to an OD600 of 0.05-0.1 and incubating shaking at 225 rpm, 30° C. At mid log phase (OD600 0.5-1.0), cells were harvested by centrifugation at 13,000 rpm, and the cell pellets were washed twice and resuspended in M9 medium without a carbon source. These resuspended cells were used to inoculate microplate wells containing 200 μL of M9 medium supplemented with 20 mM glucose and various concentrations of TC wastewater streams or their components to OD600 0.1. Microplates were then incubated at 30° C. with maximum shaking and growth was measured by reading the absorbance (OD420-580) every 30 minutes. Growth rates were calculated according to the growth curve equation.
The compounds present in the FPF stream were classified according to chemical functionality, aldehydes, ketones, phenolics, or acids, and the growth rate of P. putida was evaluated against each class of compounds.
Take `CC=O` [Acetaldehyde]: a half-maximal response (EC50) required 16.2 mM.

Take `CC(C)=O` [Acetone]: the EC50 – broadly, the midpoint of the concentration-response curve – was found to be 39.3 mM.

Compound `C=CC(=O)O` [Acrylic acid] came in with an EC50 of 11.7 mM.

In turn, `Oc1ccccc1O` [Catechol] registered an EC50 of 42.4 mM.

As to `C/C=C/C=O` [Crotonaldehyde], the EC50 stood at 17.4 mM.

`O=CC=O` [Glyoxal] returned an EC50 of 3.5 mM.

Take `CC(=O)CCO` [Methylolacetone]: the EC50 came out at 28.8 mM.

`Cc1cccc(O)c1` [m-Cresol] registered an EC50 of 3.46 mM.

Consider `Cc1ccccc1O` [o-Cresol], for which the half-maximal effective concentration (EC50) was found to be 3.12 mM.

Still in this assay, the particulars now being: Pseudomonas putida, KT2440, effective concentration that decreases the growth rate by 50%; M9 medium with 20 mM glucose, 30° C.
In turn, `C=O` [Formaldehyde] yielded an EC50 of approximately 2 mM.

In turn, `Oc1ccccc1` [Phenol] displayed an EC50 of 9.24 mM.

The same assay, now with this note: Pseudomonas putida, KT2440, effective concentration that decreases the growth rate by 50%; M9 medium with 20 mM glucose, 30° C.; read-out: EC50.
Consider `Cc1ccc(C)c(O)c1` [2,5-Xylenol], for which the EC50 was determined as 2.52 mM.

`O=C1C=CCO1` [2-Butenolide]: the EC50 was found to be 7.77 mM.

On to `CC1=CCOC1=O` [2-Methyl-butenolide], for which the EC50 came out at 5.02 mM.

Regarding `CCC(=O)CO` [2-Oxobutanol], the EC50 was 27.8 mM.

Regarding `O=Cc1ccoc1` [3-Furancarboxaldehyde], the EC50 was found to be 13.9 mM.

On to `O=Cc1ccc(CO)o1` [5-HMF, 5-(Hydroxymethyl)furfural], for which the EC50 stood at 14.3 mM.

For `CC(=O)O` [Acetic acid], the EC50 came to 64.1 mM.

`CCCC(=O)O` [Butanoic acid]: the EC50 was 35.2 mM.

Take `O=Cc1ccco1` [Furfural]: the EC50 was found to be 21 mM.

As for `O=CCO` [Glycolaldehyde], the EC50 was approximately 2 mM.

As to `COc1ccccc1O` [Guaiacol], the EC50 was determined as 13.3 mM.

`C=C(CC(=O)O)C(=O)O` [Itaconic acid]: the EC50 worked out at 89.4 mM.

Take `CCC(=O)O` [Propionic acid]: the EC50 amounted to 22.4 mM.

In the case of `COc1cccc(OC)c1O` [Syringol], the EC50 is 4.21 mM.

Consider `COc1cc(C=O)ccc1O` [Vanillin], for which the EC50 was 6.34 mM.

As for `Cc1ccc(O)cc1` [p-Cresol], the EC50 amounted to 2.25 mM.

Still in this assay, the particulars now being: effective concentration that decreases the growth rate by 50%; M9 medium with 20 mM glucose, 30° C.
In turn, `C=O` [Formaldehyde] yielded an EC50 of 2.07 mM.

Staying with this assay, now noted: effective concentration that decreases the growth rate by 50%; M9 medium with 20 mM glucose, 30° C.; read-out: EC50.
`Cc1ccc(C=O)o1` [5-methylfufaral]: the EC50 came to 15 mM.

As to `CC(=O)CO` [Acetol], the EC50 was determined as 12.4 mM.

In the case of `O=C1CCCC1` [Adipic ketone], the EC50 was found to be 9.8 mM.

On to `O=CCO` [Glycolaldehyde], for which the EC50 was 2.14 mM.

For another assay, the system named is GFP-expressing strain of P. putida KT2440. In words: GFP immunoblot of cell-free extract after GA or FPF treatment. It is filed as cell-based, Pseudomonas putida. As to conditions: GA (2 mM) or FPF (0.05% (v/v)). An excerpt:
Aldehydes, the key toxic component of the FPF stream, can confer molecular toxicity via protein damage. Indeed, GA, the major aldehyde present in FPF is a well-known post-translational protein-damaging agent. […] Cell-free extract from these conditions was immunoblotted to detect the presence of GFP. […] Furthermore, GFP inclusion bodies formed in cells treated with GA or FPF, which might be due to misfolding or cross-linking of the GFP protein. […] Thus, in an embodiment, overexpression of chaperones to rescue damaged or misfolded proteins was chosen as a strategy to enhance the tolerance of P. putida to FPF.
The fate of GFP in the LJ014 strain after treatment with FPF was then examined.
Regarding `O=CCO` [Glycolaldehyde], the “free-GFP level relative to the untreated controls” value came out at 46.8%.

Source of the values: patent publication US10829731B2, “Biocatalysts for conversion of thermochemical waste streams” (Alliance for Sustainable Energy, LLC, priority 2018, dated 2020).
